Measured values taken from patent publication US20210253598A1, “ARYL ANNULATED MACROCYCLIC INDOLE DERIVATIVES” (priority 2017, published 2021).
Counter-ions that a name gives are not always drawn. Like-named read-outs stand apart in the source and are kept apart here.

How the values were obtained:
MCL-1 = MCL-1 (Homo sapiens, UniProt Q07820, K194A/K197A/R201A); assay: Protein-protein interaction assay MCL-1/Noxa BH3 peptide, TR-FRET (MCL-1 assay, Assay 1); format: binding; conditions: MBP-MCL-1 / Noxa BH3 peptide
Sequence of MCL-1 (Q07820 173-321 K194A/K197A/R201A, looked up): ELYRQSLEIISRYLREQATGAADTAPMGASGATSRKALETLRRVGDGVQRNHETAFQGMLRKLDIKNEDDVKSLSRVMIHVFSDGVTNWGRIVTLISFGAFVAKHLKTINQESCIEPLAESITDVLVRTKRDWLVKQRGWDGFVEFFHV
Summary of the method: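 Human MBP-fused MCL-1 (aa 173-321; 1 nM final) was pre-incubated 10 min at 22 °C with compound in pH 7 Tris buffer containing NaCl, KF, Tween-20, DTT and BGG. Displacement of biotinylated Noxa BH3 peptide was read by TR-FRET (anti-MBP-Eu cryptate/streptavidin-XL665) after 1 h at 22 °C plus overnight at 4 °C. IC50 came from four-parameter fits against DMSO controls.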

SUDHL5 [1] = assay: Anti-proliferative effect in SUDHL5 cells, CellTiter-Glo (Assay 7); format: cell-based
Summary of the method: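 CellTiter-Glo luminescence after 72 h compound exposure at 37 °C; a parallel time-zero plate was read the same way. IC50 derived relative to day 0 signal and DMSO control.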

SUDHL10 [2] = assay: Induction of cytotoxicity in SUDHL10 cells, CellTiter-Glo (Assay 6); format: cell-based; conditions: SUDHL10, 5 hours incubation, median, read-out: Cytotox SUDHL10 [M] (median)
Summary of the method: (§1)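 Cells plated and held overnight at 37° C in a humidified incubator, then compound-treated for 5 hours at 37° C. Viability read by CellTiter-Glo luminescence after 15 minutes shaking at room temperature; cell-free medium served as control.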

SUDHL5 [3] = assay: Induction of caspase-3/7 activity in SUDHL5 cells (Assay 4); format: cell-based
Summary of the method: (§2)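 DLBCL lines SUDHL5 and SUDHL10 were treated with compound for 3 h at 37 °C. Caspase-3/7 activity was then read by Caspase-Glo 3/7 luminescence after 1 h at 37 °C. Medium-only background was subtracted and values were normalized to the mean of DMSO-treated cells.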

SUDHL5 [4] = assay: Induction of cytotoxicity in SUDHL5 cells, CellTiter-Glo (Assay 6); format: cell-based; conditions: SUDHL5, 5 hours incubation, median, read-out: Cytotox SUDHL5 [M] (median)
Summary of the method: as §1

SUDHL10 [5] = assay: Induction of caspase-3/7 activity in SUDHL10 cells (Assay 4); format: cell-based
Summary of the method: as §2

BCL-XL = BCL-XL (Homo sapiens, UniProt Q07817); assay: Protein-protein interaction assay BCL-XL/Bad BH3 peptide, TR-FRET (BCL-XL assay, Assay 2); format: binding; conditions: His-BCL-XL / Bad BH3 peptide, median
Sequence of BCL-XL (Q07817 1-212): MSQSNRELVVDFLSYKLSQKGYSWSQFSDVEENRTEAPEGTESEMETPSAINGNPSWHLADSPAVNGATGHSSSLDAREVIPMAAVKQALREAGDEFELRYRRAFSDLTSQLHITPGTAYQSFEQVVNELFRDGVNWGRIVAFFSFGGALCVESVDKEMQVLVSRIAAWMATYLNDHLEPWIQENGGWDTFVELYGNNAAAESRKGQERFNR

[6] = Homo sapiens, SU-DHL-5, 72 h, SUDHL5, 72 hours incubation, CellTiter-Glo, median, read-out: Antiproli SUDHL5 [M] (median)
[7] = Homo sapiens, SU-DHL-5, 3 h, SUDHL5, 3 hours treatment, Caspase-Glo 3/7, median, read-out: Caspase SUDHL5 [M] (median)
[8] = Homo sapiens, SU-DHL10, 3 h, SUDHL10, 3 hours treatment, Caspase-Glo 3/7, median, read-out: Caspase SUDHL10 [M] (median)
[9] = SUDHL5, 72 hours incubation, CellTiter-Glo, median, read-out: Antiproli SUDHL5 [M] (median)
[10] = SUDHL5, 3 hours treatment, Caspase-Glo 3/7, median, read-out: Caspase SUDHL5 [M] (median)
[11] = SUDHL10, 3 hours treatment, Caspase-Glo 3/7, median, read-out: Caspase SUDHL10 [M] (median)
[12] = median, read-out: MCL-1 Assay [M] (median)
[13] = read-out: Antiproli SUDHL5 [M] (median), SUDHL5, 72 hours incubation, CellTiter-Glo
[14] = read-out: Caspase SUDHL10 [M] (median), SUDHL10, 3 hours treatment, Caspase-Glo 3/7

Compound	IC50 (MCL-1; MCL-1 Assay [M] (median))	IC50 (SUDHL5 [1]; [6])	IC50 (SUDHL10 [2]; Homo sapiens, SU-DHL10, 5 h)	EC50 (SUDHL5 [3]; [7])	IC50 (SUDHL5 [4]; Homo sapiens, SU-DHL-5, 5 h)	EC50 (SUDHL10 [5]; [8])	IC50 (SUDHL5 [1]; [9])	IC50 (SUDHL10 [2])	EC50 (SUDHL5 [3]; [10])	IC50 (BCL-XL)	IC50 (SUDHL5 [4])	EC50 (SUDHL10 [5]; [11])	IC50 (MCL-1; [12])	IC50 (SUDHL5 [1]; [13])	EC50 (SUDHL5 [3]; Homo sapiens, SU-DHL-5, 3 h, read-out: Caspase SUDHL5 [M] (median), SUDHL5, 3 hours treatment, Caspase-Glo 3/7)	EC50 (SUDHL10 [5]; [14])	EC50 (SUDHL5 [3]; read-out: Caspase SUDHL5 [M] (median), SUDHL5, 3 hours treatment, Caspase-Glo 3/7)
Cc1c2c(nn1C)COCc1ccccc1Cn1c(C(=O)O)c(CCCOc3cccc4cc(F)ccc34)c3ccc(Cl)c-2c31 (racemic) [Example 48, (rac)-3-Chloro-17-{3-[(6-fluoronaphthalen-1-yl)oxy]propyl}-4,5-dimethyl-5,7,9,14-tetrahydroindolo[7,1-fg]pyrazolo[3,4-d][2,8]benzoxazacycloundecine-16-carboxylic Acid]	5.9e-10 M	1.6e-06 M	2.6e-06 M	1.1e-06 M	1.4e-06 M	3.1e-06 M	–	–	–	–	–	–	–	–	–	–	–
Cc1c2c(nn1C)COCc1ncccc1Cn1c(C(=O)O)c(CCCOc3cccc4ccccc34)c3cccc-2c31 (single isomer, unassigned; enantiomer 1) [Example 8, 4,5-Dimethyl-17-[3-(naphthalen-1-yloxy)propyl]-5,7,9,14-tetrahydropyrazolo[4′,3′:9,10]-pyrido[2′,3′:3,4][1,6]oxazacycloundecino[8,7,6-hi]indole-16-carboxylic acid-N-ethylethanamine Salt (Enantiomer 1)]	1.5e-09 M	–	–	–	–	–	3.2e-06 M	7.2e-06 M	2.5e-06 M	> 20 µM	3e-06 M	9.9e-06 M	–	–	–	–	–
Cc1c2c(nn1C)COCc1ccccc1Cn1c(C(=O)O)c(CCCOc3cccc4ccccc34)c3ccc(Cl)c-2c31 (single isomer, unassigned; enantiomer 1) [Example 37, (−)-3-Chloro-4,5-dimethyl-17-[3-(naphthalen-1-yloxy)propyl]-5,7,9,14-tetrahydroindolo[7,1-fg]pyrazolo[3,4-d][2,8]benzoxazacycloundecine-16-carboxylic Acid (Enantiomer 1)]	1.3e-09 M	–	–	–	–	–	–	2.7e-06 M	8.4e-07 M	> 20 µM	8.6e-07 M	2.5e-06 M	–	–	–	–	–
CCNCC.Cc1c2c(nn1C)COCc1ncccc1Cn1c(C(=O)O)c(CCCOc3cccc4ccccc34)c3ccc(Cl)c-2c31 (single isomer, unassigned; enantiomer 1) [Example 43, 3-Chloro-4,5-dimethyl-17-[3-(naphthalen-1-yloxy)propyl]-5,7,9,14-tetrahydropyrazolo-[4′,3′:9,10]pyrido[2′,3′:3,4][1,6]oxazacycloundecino[8,7,6-hi]indole-16-carboxylic acid-N-ethylethanamine Salt (Enantiomer 1)]	–	–	–	–	–	–	1.2e-06 M	2.9e-06 M	1.2e-06 M	> 20 µM	1.4e-06 M	3.7e-06 M	5.1e-10 M	–	–	–	–
Cc1c2c(nn1C)COCc1ccccc1Cn1c(C(=O)O)c(CCCOc3cccc4cc(F)ccc34)c3ccc(Cl)c-2c31 (single isomer, unassigned; enantiomer 1) [Example 49, (−)-3-Chloro-17-{3-[(6-fluoronaphthalen-1-yl)oxy]propyl}-4,5-dimethyl-5,7,9,14-tetrahydroindolo[7,1-fg]pyrazolo[3,4-d][2,8]benzoxazacycloundecine-16-carboxylic acid-N-ethylethanamine Salt (Enantiomer 1)]	4.7e-10 M	1e-06 M	1.6e-06 M	7.7e-07 M	8.8e-07 M	2.1e-06 M	–	–	–	> 20 µM	–	–	–	–	–	–	–
CCc1nn(CCN2CCOCC2)c2c1-c1c(Cl)ccc3c(CCCOc4cccc5cc(F)ccc45)c(C(=O)O)n(c13)Cc1ccccc1COC2 (single isomer, unassigned; enantiomer 1) [Example 52, (−)-3-Chloro-4-ethyl-17-{3-[(6-fluoronaphthalen-1-yl)oxy]propyl}-6-[2-(morpholin-4-yl)ethyl]-6,7,9,14-tetrahydroindolo[7,1-fg]pyrazolo[3,4-d][2,8]benzoxazacycloundecine-16-carboxylic Acid (Enantiomer 1)]	9.6e-10 M	–	–	–	–	–	5.7e-07 M	8.8e-07 M	4.9e-07 M	> 20 µM	5.2e-07 M	7.1e-07 M	–	–	–	–	–
CCc1c2c(nn1C)COCc1ccccc1Cn1c(C(=O)O)c(CCCOc3cccc4cc(F)ccc34)c3ccc(Cl)c-2c31 (single isomer, unassigned; enantiomer 1) [Example 55, (−)-3-Chloro-4-ethyl-17-{3-[(6-fluoronaphthalen-1-yl)oxy]propyl}-5-methyl-5,7,9,14-tetrahydro-indolo[7,1-fg]pyrazolo[3,4-d][2,8]benzoxazacycloundecine-16-carboxylic Acid N-ethylethanamine Salt (Enantiomer 1)]	–	–	–	–	–	–	–	1.3e-06 M	–	> 20 µM	6.4e-07 M	–	–	1e-06 M	6.6e-07 M	8.7e-07 M	–
CCc1nn(C)c2c1-c1c(Cl)ccc3c(CCCOc4cccc5cc(F)ccc45)c(C(=O)O)n(c13)Cc1ccccc1COC2 (single isomer, unassigned; enantiomer 1) [Example 58, (+)-3-Chloro-4-ethyl-17-{3-[(6-fluoronaphthalen-1-yl)oxy]propyl}-6-methyl-6,7,9,14-tetrahydro-indolo[7,1-fg]pyrazolo[3,4-d][2,8]benzoxazacycloundecine-16-carboxylic acid-N-ethylethanamine Salt (Enantiomer 1)]	–	–	–	–	–	–	1.2e-06 M	2.6e-06 M	8e-07 M	17.3 µM	8.1e-07 M	2.1e-06 M	2.6e-09 M	–	–	–	–
Cc1c2c(nn1C)COCc1ccccc1Cn1c(C(=O)O)c(CCCOc3cccc4cc(F)ccc34)c3ccc(F)c-2c31 (single isomer, unassigned; enantiomer 1) [Example 65, (−)-3-fluoro-17-{3-[(6-fluoronaphthalen-1-yl)oxy]propyl}-4,5-dimethyl-5,7,9,14-tetrahydroindolo[7,1-fg]pyrazolo[3,4-d][2,8]benzoxazacycloundecine-16-carboxylic acid-N-ethylethanamine Salt (Enantiomer 1)]	1.3e-09 M	1.1e-06 M	–	8.1e-07 M	–	2.1e-06 M	–	2.1e-06 M	–	> 20 µM	1e-06 M	–	–	–	–	–	–
Cc1c2c(nn1C)COCc1ccccc1Cn1c(C(=O)O)c(CCCOc3cccc4cc(F)ccc34)c3ccc(Cl)c-2c31 (single isomer, unassigned; enantiomer 2) [Example 50, (+)-3-Chloro-17-{3-[(6-fluoronaphthalen-1-yl)oxy]propyl}-4,5-dimethyl-5,7,9,14-tetrahydroindolo[7,1-fg]pyrazolo[3,4-d][2,8]benzoxazacycloundecine-16-carboxylic acid-N-ethylethanamine Salt (Enantiomer 2)]	1.4e-09 M	–	–	–	–	–	1.5e-06 M	2.8e-06 M	7.3e-07 M	–	9.3e-07 M	3.2e-06 M	–	–	–	–	–
CCc1c2c(nn1C)COCc1ccccc1Cn1c(C(=O)O)c(CCCOc3cccc4cc(F)ccc34)c3ccc(Cl)c-2c31 (single isomer, unassigned; enantiomer 2) [Example 56, (+)-3-Chloro-4-ethyl-17-{3-[(6-fluoronaphthalen-1-yl)oxy]propyl}-5-methyl-5,7,9,14-tetrahydro-indolo[7,1-fg]pyrazolo[3,4-d][2,8]benzoxazacycloundecine-16-carboxylic Acid N-ethylethanamine Salt (Enantiomer 2)]	3.2e-09 M	–	–	–	–	–	–	3.7e-06 M	–	–	1.6e-06 M	–	–	2.1e-06 M	–	5.4e-06 M	1.3e-06 M
